target: T1, mouse NPY-Y5 receptors (mNPY-Y5) (Mus musculus, UniProt O70342); experiment: Radioligand competition binding (125I-PYY) on membranes of HEK293 cells expressing recombinant mouse NPY-Y5 receptor; settings: displacement of 100 pM 125I-labeled PYY, 1 h at 22° C., read-out: NPY5 IC50
T1 construct: The full-length cDNA which contains the mouse NPY-Y5 (mNPY-Y5) receptor coding was amplified from mouse brain cDNA; expressed in transfected cells
T1 sequence (O70342 1-466): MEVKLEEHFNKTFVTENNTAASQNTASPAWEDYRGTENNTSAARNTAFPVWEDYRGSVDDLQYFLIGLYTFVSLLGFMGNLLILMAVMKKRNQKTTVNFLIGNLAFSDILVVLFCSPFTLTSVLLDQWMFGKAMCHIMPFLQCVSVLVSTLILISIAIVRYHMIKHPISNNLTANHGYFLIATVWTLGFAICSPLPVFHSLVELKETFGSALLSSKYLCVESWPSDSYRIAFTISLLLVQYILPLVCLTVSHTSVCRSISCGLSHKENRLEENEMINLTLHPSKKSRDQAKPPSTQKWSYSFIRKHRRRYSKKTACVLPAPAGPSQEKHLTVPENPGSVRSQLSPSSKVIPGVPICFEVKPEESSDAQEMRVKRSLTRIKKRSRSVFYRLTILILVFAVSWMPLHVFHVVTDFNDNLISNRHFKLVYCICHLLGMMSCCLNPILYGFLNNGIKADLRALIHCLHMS
From the text: The full-length cDNA which contains the mouse NPY-Y5 (mNPY-Y5) receptor coding was amplified from mouse brain cDNA using specific primers, which were custom-made on the basis of published sequences, and employing Pfu DNA polymerase (Stratagene). The amplification product was subcloned into a mammalian expression vector pcDNA3 using EcoRI and XhoI restriction sites. Positive clones were sequenced; one clone, which contained the published sequence, was selected for preparing stable cell clones.
Human embryonic kidney 293 (HEK293) cells were transfected with 10 μg of mNPY5 DNA using Lipofectamine reagent (Gibco BRL) in accordance with the manufacturer's instructions. Two days after the transfection, the geneticin selection (1 mg/ml) was initiated and several stable clones were isolated. One of the clones was used for further pharmacological characterization.
Human embryonic kidney cells (HEK293) which express recombinant mouse NPY-Y5 receptors (mNPY-Y5) were disrupted by being frozen/thawed three times in hypotonic Tris buffer (5 mM, pH 7.4, 1 mM MgCl2), after which they were homogenized and centrifuged at 72 000 G for 15 minutes. The precipitate was washed twice with Tris buffer (pH 7.4) containing 25 mM MgCl2, 250 mM sucrose, 0.1 mM phenylmethylsulfonyl fluoride and 0.1 mM 1,10-phenanthroline, then resuspended in the same buffer and stored in aliquots at −80° C. The protein was determined by the Lowry method using bovine serum albumin (BSA) as the standard.
The competition binding analysis was carried out in 250 μl of 25 mM Hepes buffer (pH 7.4, 2.5 mM CaCl2, 1 mM MgCl2, 1% bovine serum albumin and 0.01% sodium azide) which 5 μg of protein, 100 pM ^125I-labeled peptide YY (PYY) and 10 μl of a DMSO solution containing increasing quantities of DMSO solution containing unlabeled test compound. After a one-hour incubation at 22° C., the bound ligand was separated from the unbound ligand by means of filtration through a glass fiber filter. Nonspecific binding was determined in the presence of 1 μM unlabeled PYY. Specific binding is defined as the difference between total binding and nonspecific binding. An IC50 value is defined as the concentration of the antagonist which displaces 50% of the ^125I-labeled […]. This concentration is determined by linear regression analysis following logit/log transformation of the binding values.

SMILES | IC50 [nM]
COc1ccc(C)c(N2CC(C(=O)Nc3ccc(Nc4nc(C)cc(C)n4)cc3)CC2=O)c1 (racemic) [rac. N-[4-(4,6-Dimethylpyrimidin-2-ylamino)phenyl]-1-(5-methoxy-2-methylphenyl)-5-oxopyrrolidine-3-carboxamide] | 26
Cc1cc(C)nc(Nc2ccc(NC(=O)C3CC(=O)N(C4Cc5ccccc5C4)C3)cc2)n1 (racemic) [rac. N-[4-(4,6-Dimethylpyrimidin-2-ylamino)phenyl]-1-indan-2-yl-5-oxopyrrolidine-3-carboxamide] | 30
Cc1ccc(N2CC(C(=O)Nc3ccc(Nc4nc(C)cc(C)n4)cc3)CC2=O)cc1 (racemic) [rac. N-[4-(4,6-Dimethylpyrimidin-2-ylamino)phenyl]-5-oxo-1-p-tolylpyrrolidine-3-carboxamide] | 32
Cc1ccc(C)c(N2CC(C(=O)Nc3ccc(N(CC4CC4)c4ccccc4)cc3)CC2=O)c1 (racemic) [rac. N-[4-(Cyclopropylmethylphenylamino)phenyl]-1-(2,5-dimethylphenyl)-5-oxopyrrolidine-3-carboxamide] | 45
CC(C)c1ccccc1N1CC(C(=O)Nc2ccc(N(CC3CC3)c3ccccc3)cc2)CC1=O (racemic) [rac. N-[4-(Cyclopropylmethylphenylamino)phenyl]-1-(2-isopropylphenyl)-5-oxopyrrolidine-3-carboxamide] | 47
COc1ccc(C)c(N2CC(C(=O)Nc3ccc(N(CC4CC4)c4ccccc4)cc3)CC2=O)c1 (racemic) [rac. N-[4-(Cyclopropylmethylphenylamino)phenyl]-1-(5-methoxy-2-methylphenyl)-5-oxopyrrolidine-3-carboxamide] | 34
CCN(c1ccc(NC(=O)C2CC(=O)N(c3cc(C)ccc3C)C2)cc1)C(C)C (racemic) [rac. N-[4-(Ethylisopropylamino)phenyl]-1-(2,5-dimethylphenyl)-5-oxopyrrolidine-3-carboxamide] | 10
CCN(c1ccccc1)c1ccc(NC(=O)C2CC(=O)N(c3cc(C)ccc3C)C2)cc1 (racemic) [rac. N-[4-(Ethylphenylamino)phenyl]-1-(2,5-dimethylphenyl)-5-oxopyrrolidine-3-carboxamide] | 17
CCN(c1ccccc1)c1ccc(NC(=O)C2CC(=O)N(c3ccccc3C(C)C)C2)cc1 (racemic) [rac. N-[4-(Ethylphenylamino)phenyl]-1-(2-isopropylphenyl)-5-oxopyrrolidine-3-carboxamide] | 23
CCN(c1ccccc1)c1ccc(NC(=O)C2CC(=O)N(c3cc(OC)ccc3C)C2)cc1 (racemic) [rac. N-[4-(Ethylphenylamino)phenyl]-1-(5-methoxy-2-methylphenyl)-5-oxopyrrolidine-3-carboxamide] | 30
CCN(c1ccccc1)c1ccc(NC(=O)C2CC(=O)N(C3Cc4ccccc4C3)C2)cc1 (racemic) [rac. N-[4-(Ethylphenylamino)phenyl]-1-indan-2-yl-5-oxopyrrolidine-3-carboxamide] | 49
Cc1ccc(C)c(N2CC(C(=O)Nc3ccc(N(c4ccccc4)C(C)C)cc3)CC2=O)c1 (racemic) [rac. N-[4-(Isopropylphenylamino)phenyl]-1-(2,5-dimethylphenyl)-5-oxopyrrolidine-3-carboxamide] | 22
CC(C)c1ccccc1N1CC(C(=O)Nc2ccc(N(c3ccccc3)C(C)C)cc2)CC1=O (racemic) [rac. N-[4-(Isopropylphenylamino)phenyl]-1-(2-isopropylphenyl)-5-oxopyrrolidine-3-carboxamide] | 34
Cc1ccc(C)c(N2CC(C(=O)Nc3ccc(N(C)c4ccccc4)cc3)CC2=O)c1 (racemic) [rac. N-[4-(Methylphenylamino)phenyl]-1-(2,5-dimethylphenyl)-5-oxopyrrolidine-3-carboxamide] | 26
CC(C)c1ccccc1N1CC(C(=O)Nc2ccc(N(C)c3ccccc3)cc2)CC1=O (racemic) [rac. N-[4-(Methylphenylamino)phenyl]-1-(2-isopropylphenyl)-5-oxopyrrolidine-3-carboxamide] | 20
CCN(c1ccc(NC(=O)C2CC(=O)N(CC(O)c3ccccc3)C2)cc1)c1nc(C)cc(C)n1 (racemic) [rac. N-{4-[(4,6-Dimethylpyrimidin-2-yl)ethylamino]phenyl}-1-(2-hydroxy-2-phenylethyl)-5-oxo-pyrrolidine-3-carboxamide] | 33
CCN(c1ccc(NC(=O)C2CC(=O)N(c3ccccc3C(C)C)C2)cc1)c1nc(C)cc(C)n1 (racemic) [rac. N-{4-[(4,6-Dimethylpyrimidin-2-yl)ethylamino]phenyl}-1-(2-isopropylphenyl)-5-oxopyrrolidine-3-carboxamide] | 46
CCN(c1ccc(NC(=O)C2CC(=O)N(c3cccc(OC)c3)C2)cc1)c1nc(C)cc(C)n1 (racemic) [rac. N-{4-[(4,6-Dimethylpyrimidin-2-yl)ethylamino]phenyl}-1-(3-methoxyphenyl)-5-oxopyrrolidine-3-carboxamide] | 44
CCN(c1ccc(NC(=O)C2CC(=O)N(c3cc(OC)ccc3C)C2)cc1)c1nc(C)cc(C)n1 (racemic) [rac. N-{4-[(4,6-Dimethylpyrimidin-2-yl)ethylamino]phenyl}-1-(5-methoxy-2-methylphenyl)-5-oxopyrrolidine-3-carboxamide] | 15
CCN(c1ccc(NC(=O)C2CC(=O)N(CCc3ccccn3)C2)cc1)c1nc(C)cc(C)n1 (racemic) [rac. N-{4-[(4,6-Dimethylpyrimidin-2-yl)ethylamino]phenyl}-5-oxo-1-(2-pyridin-2-ylethyl)pyrrolidine-3-carboxamide] | 24
Cc1ccc(C)c(N2CC(C(=O)Nc3ccc(N(C)c4nc(C)cc(C)n4)cc3)CC2=O)c1 (racemic) [rac. N-{4-[(4,6-Dimethylpyrimidin-2-yl)methylamino]phenyl}-1-(2,5-dimethylphenyl)-5-oxopyrrolidine-3-carboxamide] | 20
Cc1cc(C)nc(N(C)c2ccc(NC(=O)C3CC(=O)N(c4ccccc4C(C)C)C3)cc2)n1 (racemic) [rac. N-{4-[(4,6-Dimethylpyrimidin-2-yl)methylamino]phenyl}-1-(2-isopropylphenyl)-5-oxopyrrolidine-3-carboxamide] | 31
COc1ccc(C)c(N2CC(C(=O)Nc3ccc(N(C)c4nc(C)cc(C)n4)cc3)CC2=O)c1 (racemic) [rac. N-{4-[(4,6-Dimethylpyrimidin-2-yl)methylamino]phenyl}-1-(5-methoxy-2-methylphenyl)-5-oxopyrrolidine-3-carboxamide] | 41
Cc1ccc(N2CC(C(=O)Nc3ccc(N(C)c4nc(C)cc(C)n4)cc3)CC2=O)cc1 (racemic) [rac. N-{4-[(4,6-Dimethylpyrimidin-2-yl)methylamino]phenyl}-5-oxo-1-p-tolylpyrrolidine-3-carboxamide] | 22
CCN(CCO)c1ccc(NC(=O)C2CC(=O)N(c3cc(C)ccc3C)C2)cc1 (racemic) [rac. N-{4-[Ethyl-(2-hydroxyethyl)amino]phenyl}-1-(2,5-dimethylphenyl)-5-oxopyrrolidine-3-carboxamide] | 16
